Columns and labels:
mice = details: single injections; cited from earlier work
[1] = tested on: primary human subcutaneous preadipocytes; experiment: High throughput screening of compound efficacy: fluorescent fatty acid (FA*) accumulation in differentiating human preadipocytes; assay type: cell-based; parameters: key to Relative Efficacy: “+++” designates a greater in vitro efficacy than “++”; “++”, which in turn is greater than “+”; “+”; details: for Relative Efficacy: inhibitors of fatty acid accumulation into differentiating adipocytes at a concentration of 100 nM
Method: Protocol for High Throughput Screening of Compound Efficacy on Human Preadipocytes Up to five cell strains of banked primary human subcutaneous preadipocytes were used for high throughput screening. […] Cells were split up to four times to produce enough cells for screening. […] On day zero, cells were incubated with growth medium to induce differentiation of preadipocytes into adipocytes (characterized by cell rounding, formation of triglyceride droplets, etc.). Growth medium was changed every three days. On day six, cells were incubated in triplicate with test compounds at various concentrations. […] Cell plates were prewashed with FAB+, and then FA* was added. Cells were incubated with FA* for four hours, and then postwashed with FAB+ to remove unincorporated FA*. Cellular fluorescence of triglyceride droplets that have incorporated FA* was measured on a microplate reader. Efficacy of compounds on inhibiting FA* accumulation was determined by the following calculation: […]

[2] = tested on: primary human subcutaneous preadipocytes; details: at 10 μM; Alamar Blue
Method: Subsequent determination of compound toxicity was measured by incubating cells with Alamar Blue (an indicator of cellular viability, purchased from BioSource International Inc., Camarillo, Calif., USA) for three to four hours before measuring fluorescence of the reduced compound. Toxicity of compounds was determined by the following calculation:
% Toxicity=100−(sample fluorescence/negative control fluorescence*100)

| SMILES | Relative Efficacy [1] | also measured |
| --- | --- | --- |
| C=C1C(=O)OC(CCCCCCCC)C1C(=O)O (stereo not drawn) [C75] | – | ate less than untreated littermates consumed (mice): 90% |
| O=C(Nc1ccncc1)c1cc([N+](=O)[O-])ccc1Cl [AGX-0104] | +++ | – |
| N#CC(C#N)=NNc1ccc(OC(F)(F)F)cc1 [FCCP, carbonyl cyanide p-(trifluoromethoxy)-phenylhydrazone] | – | Emax at 10 µM ([1]; Homo sapiens, at 10 μM, read-out: % Efficacy (inhibiting FA* accumulation)): 100%; % Toxicity [2]: 100% |
| O=C(Nc1cccnc1)c1cc([N+](=O)[O-])ccc1Cl [AGX-0105] | +++ | – |
| Cc1cc(NC(=O)c2cc([N+](=O)[O-])ccc2Cl)no1 [AGX-0114] | ++ | – |
